One block for each compound: values may come before it.
Tests used:
[1] = test system: Rattus norvegicus; assay: In vivo clearance in Sprague-Dawley rat
[2] = Half life in Sprague-Dawley rat at 1 mg/kg, iv administered as solution in DSMO and 5 mg/kg, po administered as suspension in 1% Tween 80 and 1% HPMC in water after 12 to 24 hrs by LC-MS analysis; type: ADME, organism-based; settings: in vivo
[3] = Clearance in Sprague-Dawley rat at 1 mg/kg, iv administered as solution in DSMO and 5 mg/kg, po administered as suspension in 1% Tween 80 and 1% HPMC in water after 12 to 24 hrs by LC-MS analysis; type: ADME, organism-based; settings: in vivo
[4] = Oral bioavailability in Sprague-Dawley rat at 5 mg/kg administered as suspension in 1% Tween 80 and 1% HPMC in water after 12 to 24 hrs by LC-MS analysis; type: ADME, organism-based; settings: in vivo
[5] = Volume of distribution at steady state in CD1 mouse Calu6 tumor xenograft model at 1 mg/kg, iv administered as solution in DMSO and 5 mg/kg, po administered as suspension in 20% captisol in PBS; type: ADME, organism-based; settings: in vivo, read-out: Vdss
[6] = Volume of distribution at steady state in Sprague-Dawley rat at 1 mg/kg, iv administered as solution in DSMO and 5 mg/kg, po administered as suspension in 1% Tween 80 and 1% HPMC in water after 12 to 24 hrs by LC-MS analysis; type: ADME, organism-based; settings: in vivo, read-out: Vdss
[7] = Half life in CD1 mouse Calu6 tumor xenograft model at 1 mg/kg, iv administered as solution in DMSO and 5 mg/kg, po administered as suspension in 20% captisol in PBS; type: ADME, organism-based; settings: in vivo
[8] = Clearance in CD1 mouse Calu6 tumor xenograft model at 1 mg/kg, iv administered as solution in DMSO and 5 mg/kg, po administered as suspension in 20% captisol in PBS; type: ADME, organism-based; settings: in vivo
[9] = Oral bioavailability in CD1 mouse Calu6 tumor xenograft model at 5 mg/kg administered as suspension in 20% captisol in PBS; type: ADME, organism-based; settings: in vivo
[10] = AUC in tumor of CD1 mouse Calu6 tumor xenograft model at 30 mg/kg, po administered twice daily as suspension in 1% Tween 80 and 1% HPMC in water; type: ADME, organism-based, Neoplasm; parameters: dose 30 mg/kg, route oral
[11] = in vivo; settings: CD1, mouse, tumor and plasma, po, 30 mg/kg
[12] = in vivo; settings: CD1, mouse, tumor and plasma, po, 100 mg/kg
[13] = Cmax in tumor of CD1 mouse Calu6 tumor xenograft model at 100 mg/kg, po administered twice daily as suspension in 1% Tween 80 and 1% HPMC in water; type: ADME, organism-based, Neoplasm; parameters: dose 100 mg/kg, route oral
[14] = AUC in tumor of CD1 mouse Calu6 tumor xenograft model at 100 mg/kg, po administered twice daily as suspension in 1% Tween 80 and 1% HPMC in water; type: ADME, organism-based, Neoplasm; parameters: dose 100 mg/kg, route oral
[15] = Cmax in CD1 mouse Calu6 tumor xenograft model at 100 mg/kg, po administered twice daily as suspension in 1% Tween 80 and 1% HPMC in water; type: ADME, organism-based; parameters: dose 100 mg/kg, route oral; settings: in vivo
[16] = Cmax in CD1 mouse Calu6 tumor xenograft model at 30 mg/kg, po administered twice daily as suspension in 1% Tween 80 and 1% HPMC in water; type: ADME, organism-based; parameters: dose 30 mg/kg, route oral; settings: in vivo
[17] = Cmax in tumor of CD1 mouse Calu6 tumor xenograft model at 30 mg/kg, po administered twice daily as suspension in 1% Tween 80 and 1% HPMC in water; type: ADME, organism-based, Neoplasm; parameters: dose 30 mg/kg, route oral
[18] = Volume of distribution at steady state in CD1 mouse Calu6 tumor xenograft model at 12 mg/kg, iv administered as solution in aqueous propylene glycol and 30 mg/kg, po administered as suspension in 20% captisol in PBS of pH 5.73; type: ADME, organism-based; settings: in vivo, read-out: Vdss
[19] = Volume of distribution at steady state in Sprague-Dawley rat at 2 mg/kg, iv administered as solution in DSMO and 5 mg/kg, po administered as suspension in 1% Tween 80 and 1% HPMC in water after 12 to 24 hrs by LC-MS analysis; type: ADME, organism-based; settings: in vivo, read-out: Vdss
[20] = Half life in CD1 mouse Calu6 tumor xenograft model at 12 mg/kg, iv administered as solution in aqueous propylene glycol and 30 mg/kg, po administered as suspension in 20% captisol in PBS of pH 5.73; type: ADME, organism-based; settings: in vivo
[21] = Clearance in Sprague-Dawley rat at 2 mg/kg, iv administered as solution in DSMO and 5 mg/kg, po administered as suspension in 1% Tween 80 and 1% HPMC in water after 12 to 24 hrs by LC-MS analysis; type: ADME, organism-based; settings: in vivo
[22] = AUC in tumor of CD1 mouse Calu6 tumor xenograft model at 30 mg/kg, po administered twice daily as suspension in 20% captisol in PBS of pH 3.5; type: ADME, organism-based, Neoplasm; parameters: dose 30 mg/kg, route oral
[23] = Cmax in CD1 mouse Calu6 tumor xenograft model at 30 mg/kg, po administered twice daily as suspension in 20% captisol in PBS of pH 3.5; type: ADME, organism-based; parameters: dose 30 mg/kg, route oral; settings: in vivo
[24] = in vivo; settings: CD1, mouse, tumor and plasma, po, 100 mg/kg, pH 3.5
[25] = Cmax in tumor of CD1 mouse Calu6 tumor xenograft model at 30 mg/kg, po administered twice daily as suspension in 20% captisol in PBS of pH 3.5; type: ADME, organism-based, Neoplasm; parameters: dose 30 mg/kg, route oral
[26] = Cmax in tumor of CD1 mouse Calu6 tumor xenograft model at 100 mg/kg, po administered twice daily as suspension in 20% captisol in PBS of pH 3.5; type: ADME, organism-based, Neoplasm; parameters: dose 100 mg/kg, route oral
[27] = Half life in Sprague-Dawley rat at 2 mg/kg, iv administered as solution in DSMO and 5 mg/kg, po administered as suspension in 1% Tween 80 and 1% HPMC in water after 12 to 24 hrs by LC-MS analysis; type: ADME, organism-based; settings: in vivo
[28] = Clearance in CD1 mouse Calu6 tumor xenograft model at 12 mg/kg, iv administered as solution in aqueous propylene glycol and 30 mg/kg, po administered as suspension in 20% captisol in PBS of pH 5.73; type: ADME, organism-based; settings: in vivo
[29] = AUC in tumor of CD1 mouse Calu6 tumor xenograft model at 100 mg/kg, po administered twice daily as suspension in 20% captisol in PBS of pH 3.5; type: ADME, organism-based, Neoplasm; parameters: dose 100 mg/kg, route oral
[30] = in vivo; settings: CD1, mouse, tumor and plasma, po, 30 mg/kg, pH 3.5
[31] = Cmax in CD1 mouse Calu6 tumor xenograft model at 100 mg/kg, po administered twice daily as suspension in 20% captisol in PBS of pH 3.5; type: ADME, organism-based; parameters: dose 100 mg/kg, route oral; settings: in vivo

CL [1]: 40 mL/min/kg
SMILES: COc1cc(Nc2nccc(Nc3cc4ccccc4cn3)n2)cc(OC)c1OC

half-life [2]: 1.3 h
clearance [3]: 20 mL/min/kg
bioavailability [4]: 16%
Vd [5]: 1.8 L/kg
Vd [6]: 1.1 L/kg
half-life [7]: 2.3 h
clearance [8]: 107 mL/min/kg
bioavailability [9]: 56%
SMILES: COc1cc(Nc2nccc(Nc3ccc4ncccc4c3)n2)cc(OC)c1OC

CL [1]: 40 mL/min/kg
SMILES: COc1cc(Nc2nccc(Nc3ccc4[nH]ncc4c3)n2)cc(OC)c1OC

CL [1]: 48.3 mL/min/kg
SMILES: COc1cc(Nc2nccc(Nc3cnc4ccccc4c3)n2)cc(OC)c1

CL [1]: 48.3 mL/min/kg
SMILES: COc1ccc(Nc2nccc(Nc3cnc4ccccc4c3)n2)cc1Cl

AUC [10]: 0.989 µg·h/mL
Kp [11]: 0.129
half-life [2]: 1.7 h
Kp [12]: 0.18
Cmax [13]: 2720 nM
clearance [3]: 6.67 mL/min/kg
bioavailability [4]: 33%
Vd [5]: 0.3 L/kg
AUC [14]: 5.17 µg·h/mL
Cmax [15]: 13400 nM
Vd [6]: 0.2 L/kg
Cmax [16]: 5340 nM
half-life [7]: 1.7 h
Cmax [17]: 525 nM
clearance [8]: 26.7 mL/min/kg
bioavailability [9]: 63%
SMILES: COc1cc(Nc2nccc(Nc3cnc4ccccc4c3)n2)cc(OC)c1OC

CL [1]: 31.7 mL/min/kg
SMILES: COc1cc(Nc2nccc(Nc3cnc4ccccc4c3)n2)ccc1OCCCN1CCCCC1

CL [1]: 48.3 mL/min/kg
SMILES: COc1cc(Nc2nccc(Nc3cnc4ccccc4c3)n2)ccc1N1CCOCC1

Vd [18]: 28.1 L/kg
Vd [19]: 9.5 L/kg
half-life [20]: 5.3 h
clearance [21]: 10 mL/min/kg
bioavailability [4]: 9%
AUC [22]: 13.3 µg·h/mL
Cmax [23]: 180 nM
Kp [24]: 81.9
Cmax [25]: 1360 nM
Cmax [26]: 143000 nM
half-life [27]: 12.1 h
clearance [28]: 98.3 mL/min/kg
AUC [29]: 1120 µg·h/mL
Kp [30]: 11.6
Cmax [31]: 2220 nM
SMILES: c1ccc2ncc(Nc3ccnc(Nc4ccc(OCCCN5CCCCC5)cc4)n3)cc2c1

CL [1]: 40 mL/min/kg
SMILES: COc1cc(Nc2nccc(Nc3ccc4ccccc4c3)n2)cc(OC)c1OC
